Test [1] concerns the target T1, Testis-specific serine/threonine-protein kinase 2 (Homo sapiens) (UniProt Q96PF2).
T1 sequence (whole entry): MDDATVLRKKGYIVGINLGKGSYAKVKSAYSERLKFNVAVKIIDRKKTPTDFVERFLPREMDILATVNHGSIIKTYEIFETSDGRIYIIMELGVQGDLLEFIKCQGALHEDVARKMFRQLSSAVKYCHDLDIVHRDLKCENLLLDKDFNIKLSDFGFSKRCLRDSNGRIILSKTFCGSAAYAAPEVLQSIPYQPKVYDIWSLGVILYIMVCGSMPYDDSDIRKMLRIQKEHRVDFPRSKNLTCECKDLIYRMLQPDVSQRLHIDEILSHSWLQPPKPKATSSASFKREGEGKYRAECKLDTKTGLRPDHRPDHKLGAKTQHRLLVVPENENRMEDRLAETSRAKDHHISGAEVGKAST
Put plainly: Inhibition of TSSK2 (unknown origin) at 10 uM after 120 mins P33 radiolabeled kinase activity assay.

For test [2], the target named is G protein-coupled receptor kinase 5 (Homo sapiens) (UniProt P34947). Put plainly: Inhibition of GRK5 (unknown origin) at 10 uM after 120 mins P33 radiolabeled kinase activity assay.
Test [3] has as its target Casein kinase I isoform alpha (Homo sapiens) (UniProt P48729). Put plainly: Inhibition of CK1alpha1 (unknown origin) at 10 uM after 120 mins P33 radiolabeled kinase activity assay.
The target in test [4] is T2, Serine/threonine-protein kinase A-Raf (Homo sapiens) (UniProt P10398).
T2 sequence (whole entry): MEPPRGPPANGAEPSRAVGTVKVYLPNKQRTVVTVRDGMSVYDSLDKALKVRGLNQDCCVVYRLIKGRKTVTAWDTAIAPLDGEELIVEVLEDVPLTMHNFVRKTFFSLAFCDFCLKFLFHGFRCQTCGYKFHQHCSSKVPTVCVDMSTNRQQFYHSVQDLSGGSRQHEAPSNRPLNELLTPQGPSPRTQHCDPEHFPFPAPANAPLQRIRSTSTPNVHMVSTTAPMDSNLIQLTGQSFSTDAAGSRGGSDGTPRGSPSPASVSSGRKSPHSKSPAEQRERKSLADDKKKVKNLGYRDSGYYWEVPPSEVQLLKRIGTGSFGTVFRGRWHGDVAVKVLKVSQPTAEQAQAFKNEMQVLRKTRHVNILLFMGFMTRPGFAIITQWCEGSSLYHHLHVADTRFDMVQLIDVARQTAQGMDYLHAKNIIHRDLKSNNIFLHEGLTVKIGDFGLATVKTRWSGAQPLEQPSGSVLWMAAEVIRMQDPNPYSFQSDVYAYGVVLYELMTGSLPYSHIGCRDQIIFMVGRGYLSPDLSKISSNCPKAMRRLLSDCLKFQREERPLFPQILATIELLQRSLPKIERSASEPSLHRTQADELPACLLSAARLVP
Put plainly: Inhibition of ARAF (unknown origin) at 10 uM after 120 mins P33 radiolabeled kinase activity assay.

Test [5] has as its target Tyrosine-protein kinase ABL1 (Homo sapiens) (UniProt P00519). Put plainly: Inhibition of ABL1 (unknown origin) at 10 uM after 120 mins P33 radiolabeled kinase activity assay.
Test [6] deals with T3, Aurora kinase A (Homo sapiens) (UniProt O14965).
T3 sequence (whole entry): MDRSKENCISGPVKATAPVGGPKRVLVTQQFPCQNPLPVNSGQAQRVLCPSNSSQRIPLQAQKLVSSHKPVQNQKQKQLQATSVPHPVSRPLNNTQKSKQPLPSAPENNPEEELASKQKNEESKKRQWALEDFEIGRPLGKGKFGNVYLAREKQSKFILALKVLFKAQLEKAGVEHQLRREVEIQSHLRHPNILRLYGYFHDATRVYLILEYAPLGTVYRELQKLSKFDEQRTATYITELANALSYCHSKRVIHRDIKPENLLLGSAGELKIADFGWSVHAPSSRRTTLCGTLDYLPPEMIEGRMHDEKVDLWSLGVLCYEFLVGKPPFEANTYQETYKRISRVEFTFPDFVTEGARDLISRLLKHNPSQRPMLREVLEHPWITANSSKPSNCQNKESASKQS
Put plainly: Inhibition of Aurora A (unknown origin) at 10 uM after 120 mins P33 radiolabeled kinase activity assay.

Test [7] addresses Serine/threonine-protein kinase Nek4 (Homo sapiens) (UniProt P51957). Put plainly: Inhibition of NEK4 (unknown origin) at 10 uM after 120 mins P33 radiolabeled kinase activity assay.
For test [8], the target named is Insulin receptor (Homo sapiens) (UniProt P06213). Put plainly: Inhibition of IR (unknown origin) at 10 uM after 120 mins P33 radiolabeled kinase activity assay.
Test [9] addresses Serine/threonine-protein kinase pim-1 (Homo sapiens) (UniProt P11309). Put plainly: Inhibition of PIM1 (unknown origin) at 10 uM after 120 mins P33 radiolabeled kinase activity assay.
Test [10] deals with T4, Tyrosine-protein kinase ITK/TSK (Homo sapiens) (UniProt Q08881).
T4 sequence (whole entry): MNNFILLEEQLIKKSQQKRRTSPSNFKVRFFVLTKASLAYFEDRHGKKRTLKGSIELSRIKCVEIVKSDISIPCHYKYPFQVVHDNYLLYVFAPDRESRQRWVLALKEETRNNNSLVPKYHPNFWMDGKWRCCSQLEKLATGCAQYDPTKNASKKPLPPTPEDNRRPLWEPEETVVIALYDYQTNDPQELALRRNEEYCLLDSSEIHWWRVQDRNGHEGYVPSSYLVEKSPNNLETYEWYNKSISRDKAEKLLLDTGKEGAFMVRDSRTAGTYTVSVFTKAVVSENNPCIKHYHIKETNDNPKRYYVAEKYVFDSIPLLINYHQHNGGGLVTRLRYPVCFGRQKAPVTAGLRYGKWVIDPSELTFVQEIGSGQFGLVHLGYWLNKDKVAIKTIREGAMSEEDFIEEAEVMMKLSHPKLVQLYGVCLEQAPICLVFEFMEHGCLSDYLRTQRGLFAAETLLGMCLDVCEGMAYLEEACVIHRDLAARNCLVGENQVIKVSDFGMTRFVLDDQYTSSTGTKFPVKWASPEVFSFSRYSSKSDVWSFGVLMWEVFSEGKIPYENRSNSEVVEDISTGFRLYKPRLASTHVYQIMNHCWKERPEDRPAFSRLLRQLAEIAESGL
Put plainly: Inhibition of ITK (unknown origin) at 10 uM after 120 mins P33 radiolabeled kinase activity assay.

Test [11] has as its target Death-associated protein kinase 3 (Homo sapiens) (UniProt O43293). Put plainly: Inhibition of ZIPK (unknown origin) at 10 uM after 120 mins P33 radiolabeled kinase activity assay.
Test [12] has as its target Dual specificity protein kinase CLK3 (Homo sapiens) (UniProt P49761). Put plainly: Inhibition of CLK3 (unknown origin) at 10 uM after 120 mins P33 radiolabeled kinase activity assay.
Test [13] deals with CDK3/Cyclin E (Homo sapiens) (UniProt P24864+Q00526). Put plainly: Inhibition of CDK3/cyclin E (unknown origin) at 10 uM after 120 mins P33 radiolabeled kinase activity assay. The test is classed as protein-complex assay.

In ChEMBL document CHEMBL3627608, “Crystal structures of human RIP2 kinase catalytic domain complexed with ATP-competitive inhibitors: Foundations for understanding inhibitor selectivity” (Bioorg Med Chem, 2015) one finds inhibition data, which are given here for three compounds.

Sequence of CDK3/Cyclin E (Homo sapiens) (P24864 whole entry, looked up): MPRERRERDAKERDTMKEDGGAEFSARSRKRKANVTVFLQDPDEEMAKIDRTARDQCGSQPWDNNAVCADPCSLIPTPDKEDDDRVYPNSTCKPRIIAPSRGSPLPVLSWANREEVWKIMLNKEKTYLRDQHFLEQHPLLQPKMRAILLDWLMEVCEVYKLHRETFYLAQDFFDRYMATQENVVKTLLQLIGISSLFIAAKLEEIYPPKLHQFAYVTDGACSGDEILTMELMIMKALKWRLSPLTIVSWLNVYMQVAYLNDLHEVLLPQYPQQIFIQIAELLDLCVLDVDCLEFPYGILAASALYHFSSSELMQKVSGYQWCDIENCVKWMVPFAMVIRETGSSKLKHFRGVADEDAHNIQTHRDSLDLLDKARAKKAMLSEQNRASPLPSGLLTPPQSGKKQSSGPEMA
Sequence of CDK3/Cyclin E (Homo sapiens) (Q00526 whole entry, looked up): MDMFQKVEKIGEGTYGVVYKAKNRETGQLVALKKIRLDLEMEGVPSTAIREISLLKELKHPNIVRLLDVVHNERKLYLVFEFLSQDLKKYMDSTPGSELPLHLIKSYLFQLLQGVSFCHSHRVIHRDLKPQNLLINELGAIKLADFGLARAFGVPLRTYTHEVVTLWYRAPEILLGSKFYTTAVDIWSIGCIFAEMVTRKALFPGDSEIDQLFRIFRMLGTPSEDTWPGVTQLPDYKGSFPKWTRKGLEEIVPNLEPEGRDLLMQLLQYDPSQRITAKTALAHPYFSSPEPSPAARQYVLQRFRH
Sequence of Dual specificity protein kinase CLK3 (Homo sapiens) (P49761 whole entry, looked up): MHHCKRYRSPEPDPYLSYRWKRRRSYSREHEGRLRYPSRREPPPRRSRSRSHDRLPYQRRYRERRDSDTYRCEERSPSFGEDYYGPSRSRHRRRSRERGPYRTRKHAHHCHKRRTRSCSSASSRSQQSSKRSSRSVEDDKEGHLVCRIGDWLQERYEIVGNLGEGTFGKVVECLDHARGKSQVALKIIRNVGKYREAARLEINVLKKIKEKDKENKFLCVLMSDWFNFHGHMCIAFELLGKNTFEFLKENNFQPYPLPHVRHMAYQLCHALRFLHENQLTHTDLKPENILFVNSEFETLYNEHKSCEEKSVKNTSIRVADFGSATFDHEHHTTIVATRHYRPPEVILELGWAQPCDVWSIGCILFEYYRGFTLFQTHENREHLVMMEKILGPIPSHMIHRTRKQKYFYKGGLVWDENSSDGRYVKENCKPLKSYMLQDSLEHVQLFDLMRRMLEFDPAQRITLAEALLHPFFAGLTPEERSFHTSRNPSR
Sequence of Serine/threonine-protein kinase pim-1 (Homo sapiens) (P11309 whole entry, looked up): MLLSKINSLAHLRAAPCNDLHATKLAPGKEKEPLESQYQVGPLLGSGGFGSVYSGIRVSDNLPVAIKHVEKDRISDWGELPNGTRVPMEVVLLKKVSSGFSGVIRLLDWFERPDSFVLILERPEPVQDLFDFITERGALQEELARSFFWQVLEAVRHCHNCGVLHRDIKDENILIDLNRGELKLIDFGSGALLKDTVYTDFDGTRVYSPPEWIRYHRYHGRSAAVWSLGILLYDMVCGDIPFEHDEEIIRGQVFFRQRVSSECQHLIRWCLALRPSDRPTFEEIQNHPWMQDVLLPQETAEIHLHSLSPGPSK
Sequence of Tyrosine-protein kinase ABL1 (Homo sapiens) (P00519 whole entry): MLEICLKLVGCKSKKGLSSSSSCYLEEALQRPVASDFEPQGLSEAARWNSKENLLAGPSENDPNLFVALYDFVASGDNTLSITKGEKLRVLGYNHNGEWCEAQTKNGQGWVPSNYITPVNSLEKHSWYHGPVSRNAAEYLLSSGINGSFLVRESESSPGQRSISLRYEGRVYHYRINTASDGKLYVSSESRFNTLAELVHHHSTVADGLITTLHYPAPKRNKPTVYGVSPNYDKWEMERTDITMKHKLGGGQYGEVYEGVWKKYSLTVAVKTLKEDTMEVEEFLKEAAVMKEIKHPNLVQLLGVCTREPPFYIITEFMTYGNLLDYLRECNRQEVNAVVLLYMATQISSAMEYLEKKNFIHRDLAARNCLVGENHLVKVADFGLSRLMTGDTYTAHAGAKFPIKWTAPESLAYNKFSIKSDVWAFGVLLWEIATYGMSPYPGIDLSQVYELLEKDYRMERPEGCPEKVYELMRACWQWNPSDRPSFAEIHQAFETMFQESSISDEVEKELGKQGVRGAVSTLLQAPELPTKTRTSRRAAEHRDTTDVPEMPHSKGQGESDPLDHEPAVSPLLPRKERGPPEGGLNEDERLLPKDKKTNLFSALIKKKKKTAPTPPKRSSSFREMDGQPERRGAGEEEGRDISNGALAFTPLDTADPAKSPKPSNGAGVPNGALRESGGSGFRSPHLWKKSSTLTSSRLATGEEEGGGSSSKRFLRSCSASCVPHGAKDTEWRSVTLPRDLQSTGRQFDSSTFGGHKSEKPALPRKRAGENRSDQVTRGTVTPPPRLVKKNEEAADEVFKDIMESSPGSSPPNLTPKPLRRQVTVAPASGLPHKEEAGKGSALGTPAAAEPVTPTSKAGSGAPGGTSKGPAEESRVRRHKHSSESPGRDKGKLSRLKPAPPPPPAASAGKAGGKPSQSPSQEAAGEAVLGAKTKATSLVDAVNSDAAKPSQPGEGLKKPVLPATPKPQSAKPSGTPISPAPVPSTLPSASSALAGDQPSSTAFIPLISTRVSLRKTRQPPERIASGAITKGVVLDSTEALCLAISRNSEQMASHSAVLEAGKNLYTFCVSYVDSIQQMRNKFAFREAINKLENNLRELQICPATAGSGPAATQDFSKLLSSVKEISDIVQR
Sequence of Death-associated protein kinase 3 (Homo sapiens) (O43293 whole entry, looked up): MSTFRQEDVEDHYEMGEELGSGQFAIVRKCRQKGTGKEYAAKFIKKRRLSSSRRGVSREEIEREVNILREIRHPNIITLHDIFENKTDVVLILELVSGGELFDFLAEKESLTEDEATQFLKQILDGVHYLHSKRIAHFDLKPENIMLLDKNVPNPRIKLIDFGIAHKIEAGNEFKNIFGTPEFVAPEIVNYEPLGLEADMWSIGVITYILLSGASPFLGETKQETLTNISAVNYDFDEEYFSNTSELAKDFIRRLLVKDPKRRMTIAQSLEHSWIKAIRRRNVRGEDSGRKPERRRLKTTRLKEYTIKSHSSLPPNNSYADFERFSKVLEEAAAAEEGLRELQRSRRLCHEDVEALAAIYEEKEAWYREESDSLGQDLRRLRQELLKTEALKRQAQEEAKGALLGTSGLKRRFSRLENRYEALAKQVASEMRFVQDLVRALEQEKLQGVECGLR
Sequence of Insulin receptor (Homo sapiens) (P06213 28-758 limits assumed): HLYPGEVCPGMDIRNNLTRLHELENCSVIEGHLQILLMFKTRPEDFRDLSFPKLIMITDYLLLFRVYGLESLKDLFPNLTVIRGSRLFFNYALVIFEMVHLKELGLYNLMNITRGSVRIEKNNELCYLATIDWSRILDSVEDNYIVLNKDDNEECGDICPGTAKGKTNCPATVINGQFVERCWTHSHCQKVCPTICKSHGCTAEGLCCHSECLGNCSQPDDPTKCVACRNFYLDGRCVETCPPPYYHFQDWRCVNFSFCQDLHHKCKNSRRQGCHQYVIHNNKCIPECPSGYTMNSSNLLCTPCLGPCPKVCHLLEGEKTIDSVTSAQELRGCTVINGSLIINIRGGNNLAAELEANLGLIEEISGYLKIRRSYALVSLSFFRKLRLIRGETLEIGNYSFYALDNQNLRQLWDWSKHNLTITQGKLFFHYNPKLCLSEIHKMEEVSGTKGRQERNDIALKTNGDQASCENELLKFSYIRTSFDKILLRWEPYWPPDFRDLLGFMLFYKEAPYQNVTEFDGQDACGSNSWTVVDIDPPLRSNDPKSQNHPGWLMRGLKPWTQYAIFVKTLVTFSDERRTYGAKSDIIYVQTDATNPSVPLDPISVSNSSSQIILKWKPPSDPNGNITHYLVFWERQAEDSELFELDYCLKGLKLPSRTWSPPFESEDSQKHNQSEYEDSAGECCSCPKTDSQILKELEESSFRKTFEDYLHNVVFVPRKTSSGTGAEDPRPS
Sequence of Insulin receptor (Homo sapiens) (P06213 763-1382 limits assumed): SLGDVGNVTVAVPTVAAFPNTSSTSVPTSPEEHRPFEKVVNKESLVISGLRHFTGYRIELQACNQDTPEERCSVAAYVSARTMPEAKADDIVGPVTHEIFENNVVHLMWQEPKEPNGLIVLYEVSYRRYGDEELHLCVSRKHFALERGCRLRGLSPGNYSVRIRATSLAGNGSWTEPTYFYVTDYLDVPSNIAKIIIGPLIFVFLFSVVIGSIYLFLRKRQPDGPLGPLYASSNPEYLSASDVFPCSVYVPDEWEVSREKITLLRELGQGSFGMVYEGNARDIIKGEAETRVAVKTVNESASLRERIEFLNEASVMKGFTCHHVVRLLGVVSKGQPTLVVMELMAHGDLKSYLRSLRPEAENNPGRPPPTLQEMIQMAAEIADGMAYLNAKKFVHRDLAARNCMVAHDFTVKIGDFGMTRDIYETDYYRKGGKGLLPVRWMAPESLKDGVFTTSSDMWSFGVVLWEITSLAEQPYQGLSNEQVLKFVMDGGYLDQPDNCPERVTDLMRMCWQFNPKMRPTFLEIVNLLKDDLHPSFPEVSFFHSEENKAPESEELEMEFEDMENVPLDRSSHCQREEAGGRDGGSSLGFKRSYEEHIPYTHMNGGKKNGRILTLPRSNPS
Sequence of Casein kinase I isoform alpha (Homo sapiens) (P48729 2-337 limits assumed): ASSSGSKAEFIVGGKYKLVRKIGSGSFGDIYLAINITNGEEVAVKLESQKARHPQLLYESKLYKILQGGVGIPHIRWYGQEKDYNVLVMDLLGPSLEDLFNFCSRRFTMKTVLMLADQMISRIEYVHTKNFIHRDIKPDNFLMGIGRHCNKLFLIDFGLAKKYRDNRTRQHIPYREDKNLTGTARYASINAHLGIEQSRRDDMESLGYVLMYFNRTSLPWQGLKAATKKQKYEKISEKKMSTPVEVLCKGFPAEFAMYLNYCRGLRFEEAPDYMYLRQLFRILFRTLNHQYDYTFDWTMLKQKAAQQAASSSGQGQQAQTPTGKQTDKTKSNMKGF

Regarding `CS(=O)(=O)c1cccc(Nc2nccc(-c3sc(N4CCOCC4)nc3-c3cccc(NS(=O)(=O)c4c(F)cccc4F)c3)n2)c1`, the inhibition in [1] is 1.83%; in [2], -3.67%; in [3], 22.6%; in [4] it was 97.7%; in [5] it was 98.1%; in test [6] it was 83.4%. The inhibition in test [7] was determined as 59.9%; in test [8], 0.58%; in test [9], 10.6%; in test [10], 96.8%; in test [11], 50.7%; in [12] it was 36.7%. The inhibition in test [13] stood at 60%.
With `CC(C)(C)c1cc(NC(=O)Nc2ccc(Oc3ccncc3)cc2)no1`, the inhibition is 1.87% in [1]; -7.31% in [2]; 19.9% in test [3]; 96.2% in [4]; 88.4% in [5]; 48.4% in test [6]. The inhibition in test [7] was found to be 21.7%; in [8], 21.6%; in test [9], 64.5%; in test [10], 15.4%; in test [11], 35.6%; in test [12], 9.12%. For the same compound, in test [13], the inhibition came out at 49.5%.
In the case of `COCCNC(=O)c1ccc2c(c1)nc(-c1cnc(-c3ccc(Cl)cc3)[nH]1)n2CCOC`, the inhibition in [1] was 3.82%; in test [2], -6.1%; in [3] it was 46.8%; in test [4], 75.8%; in test [5], 65.6%; in test [6], 13.9%. In addition, the inhibition in test [7] is -2.37%; in test [8], 2.89%; in test [9] it was 7.46%; in test [10], 15.1%; in test [11], 3.1%; in test [12], 5.68%. For the same compound, in test [13], the inhibition is 0.29%.
